As usually defined, the IC50 is the concentration that gives 50% inhibition.

The target in the experiment is T1, GPR43 (Homo sapiens, UniProt O15552).
T1 construct: expressed in transfected cells
T1 sequence (O15552 1-330): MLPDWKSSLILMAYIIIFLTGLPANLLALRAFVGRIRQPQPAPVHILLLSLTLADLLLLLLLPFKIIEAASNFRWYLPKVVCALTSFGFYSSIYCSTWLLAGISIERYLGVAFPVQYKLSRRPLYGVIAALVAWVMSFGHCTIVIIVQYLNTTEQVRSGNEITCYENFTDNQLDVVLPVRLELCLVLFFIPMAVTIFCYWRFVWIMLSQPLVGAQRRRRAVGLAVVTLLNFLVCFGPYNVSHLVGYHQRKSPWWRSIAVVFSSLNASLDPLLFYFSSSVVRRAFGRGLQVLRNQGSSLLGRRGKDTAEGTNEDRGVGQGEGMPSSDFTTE
Briefly: Calcium mobilization assay with probenecid. The class given is cell-based. Particulars: GPR43 stably expressing cells; triggered with sodium acetate at EC80; 2.5 mM probenecid; read-out: GPR43 assay with probenicid IC50. How it is done: The following assay can be used for determination of GPR43 activation. The assay measures intracellular calcium release induced by activation of GPR43. On day 1, GPR43 stably expressing cells were detached with mild trypsinization (Trypsin, 0.25% with EDTA 4Na, 5× diluted in PBS) centrifuged at 1000 rpm for 5 min and resuspended at 6.000 cells/25 […] medium (DMEM supplemented with 10% FBS, 10 μg/mL puromycin and 1% Pen/Strep). The cells were distributed in poly-D-lysine coated 384 well plates (black with clear bottom, 25 μL/well) and incubated overnight at 37° C. 10% CO2.
On day 2, 25 μL of a fluorescent Ca^2+ indicator (Calcium 4 assay; Molecular Devices) supplemented with 2.5 mM probenecid was added on top of the cells and incubated for 2 h at 37° C. Subsequently, compounds at increasing concentration (10 μL/well) were added to the plate and incubated for 15 min at 37° C.
To measure agonist activity of the compounds, compound was added to the well and the Ca^2+-flux was measured simultaneously to the […] of compound.
On the technique in general: A change in cytosolic calcium serves as a functional read-out for many receptors and channels.

In the case of `Cc1cc(C)cc(CC(=O)N2CCC2(C)C(=O)N(Cc2ccc(Cl)cc2)Cc2cc(O)[nH]n2)c1` (stereo not drawn) [Compound 133, 1-[2-(3,5-Dimethyl-phenyl)-acetyl]-2-methyl-azetidine-2-carboxylic acid (4-chloro-benzyl)-(5-hydroxy-1H-pyrazol-3-ylmethyl)-amide], the IC50 was in the range of 0.01 to 100 nM.

As for `CC1(C(=O)N(CCCC(=O)O)Cc2ccc(Cl)cc2)CCN1C(=O)c1ccc2sccc2c1` (stereo not drawn) [Compound 135, 4-[[1-(Benzo[b]thiophene-5-carbonyl)-2-methyl-azetidine-2-carbonyl]-(4-chloro-benzyl)-amino]-butyric acid], the IC50 lay within 501 to 1000 nM.

As for `CC1(C(=O)N(CCCC(=O)O)Cc2ccc(Cl)cc2)CCN1C(=O)Cc1cccc2sccc12` (stereo not drawn) [Compound 136, 4-[[1-(2-Benzo[b]thiophen-4-yl-acetyl)-2-methylazetidine-2-carbonyl]-(4-chloro-benzyl)-amino]-butyric acid], the IC50 lay within 101 to 500 nM.

Regarding `CC1(C(=O)N(CCCC(=O)N2CCOCC2)Cc2ccc(Cl)cc2)CCN1C(=O)c1ccc2sccc2c1` (stereo not drawn) [Compound 138, 1-(benzo[b]thiophene-5-carbonyl)-N-(4-chlorobenzyl)-2-methyl-N-(4-morpholino-4-oxobutyl)azetidine-2-carboxamide], the IC50 was more than 1000 nM.

For the compound `CC1(C(=O)N(CCCC(=O)N2CCOCC2)Cc2ccc(Cl)cc2)CCN1C(=O)c1csc2ccccc12` (stereo not drawn) [Compound 139, 1-(benzo[b]thiophene-3-carbonyl)-N-(4-chlorobenzyl)-2-methyl-N-(4-morpholino-4-oxobutyl)azetidine-2-carboxamide], the IC50 is more than 1000 nM.

In the case of `CC1(C(=O)N(CCCC(=O)N2CCOCC2)Cc2ccc(Cl)cc2)CCN1C(=O)Cc1coc2ccccc12` (stereo not drawn) [Compound 140, 1-(2-Benzofuran-3-yl-acetyl)-2-methyl-azetidine-2-carboxylic acid (4-chloro-benzyl)-(4-morpholin-4-yl-4-oxo-butyl)-amide], the IC50 is more than 1000 nM.

With `CCOC(=O)CCCN(Cc1ccc(C(F)(F)F)cc1)C(=O)C1(C)CCN1C(=O)c1csc2ccccc12` (stereo not drawn) [Compound 141, ethyl 4-(1-(benzo[b]thiophene-3-carbonyl)-2-methyl-N-(4-(trifluoromethyl)benzyl)azetidine-2-carboxamido)butanoate], the IC50 was more than 1000 nM.

As to `CCOC(=O)CCCN(Cc1ccc(C(F)(F)F)cc1)C(=O)C1(C)CCN1C(=O)Cc1csc2ccccc12` (stereo not drawn) [Compound 142, 4-[[1-(2-Benzo[b]thiophen-3-yl-acetyl)-2-methyl-azetidine-2-carbonyl]-(4-trifluoromethyl-benzyl)-amino]-butyric acid ethyl ester], the concentration for half-maximal inhibition (IC50) was more than 1000 nM.

As to `CCOC(=O)CCCN(Cc1cccc(Cl)c1)C(=O)C1(C)CCN1C(=O)c1csc2ccccc12` (stereo not drawn) [Compound 143, ethyl 4-(1-(benzo[b]thiophene-3-carbonyl)-N-(3-chlorobenzyl)-2-methylazetidine-2-carboxamido)butanoate], the IC50 is more than 1000 nM.

In the case of `CC1(C(=O)N(CCCC(=O)O)Cc2ccc(C(F)(F)F)cc2)CCN1C(=O)c1csc2ccccc12` (stereo not drawn) [Compound 145, 4-[[1-(Benzo[b]thiophene-3-carbonyl)-2-methyl-azetidine-2-carbonyl]-(4-trifluoromethyl-benzyl)-amino]-butyric acid], the IC50 was in the range of 101 to 500 nM.

For `CCOC(=O)CCCN(Cc1cccc(Cl)c1)C(=O)C1(C)CCN1C(=O)Cc1csc2ccccc12` (stereo not drawn) [Compound 147, 4-[[1-(2-Benzo[b]thiophen-3-yl-acetyl)-2-methyl-azetidine-2-carbonyl]-(3-chloro-benzyl)-amino]-butyric acid ethyl ester], the IC50 lay in the range of 501 to 1000 nM.

As for `CC1(C(=O)N(CCCC(=O)O)Cc2cccc(Cl)c2)CCN1C(=O)Cc1csc2ccccc12` (stereo not drawn) [Compound 148, 4-[[1-(2-Benzo[b]thiophen-3-yl-acetyl)-2-methyl-azetidine-2-carbonyl]-(3-chloro-benzyl)-amino]-butyric acid], the concentration for half-maximal inhibition (IC50) was in the range of 501 to 1000 nM.

Source of the values: patent US8759334B2, “Compounds useful for the treatment of metabolic and inflammatory diseases” (Galapagos NV, priority 2011, dated 2014).
